Patent US8344009B2, “Substituted phenoxy thiazolidinediones as estrogen related receptor-á modulators” (priority 2007, dated 2013)
Marks after values point to notes of the source that are not given here.

Experiments:
[1] = tested on: AKR/J mice; assay: AKR/J mouse obesity model; format: in vivo; settings: for 3-hydroxy-butyrate / % body fat / FFA (Free Fatty Acids): NEFA (Non Esterified Fatty Acids) / Glucose / Lean Mass / Triglyceride / Insulin / Total body fat: five days; for Insulin: plasma; for Total body fat: high fat diet, Q-NMR
Experimental: AKR/J mice are a polygenic model of diet-induced obesity characterized by hypertriglyceridemia and hyperinsulinemia. AKR/J mice were received at seven weeks of age and allowed to acclimate for one week and then placed on high fat diet (45% of the calories from fat) for five weeks. Animals were treated for five days with 3 mpk (mg/kg) and 30 mpk Compound 1 (Example 1) given orally twice a day. Food intake was measured at day four. On day five, prior to necropsies, body weight was recorded and body composition was measured by Q-NMR (Quantitative Nuclear Magnetic Resonance). Animals were anesthetized with carbon dioxide and blood was collected by cardiac puncture. Plasma was obtained by centrifugation and used to determine circulating insulin levels and clinical chemistries, including liver functions tests, using commercially available kits as per manufacturers instructions. Several tissues were harvested, frozen in liquid nitrogen and stored at −80° C. for further use.

[2] = tested on: ZDF fa/fa male rats; assay: ZDF diabetic rat model (3, 10, 30 mpk); format: in vivo; settings: for % Fat Day 18: Q-NMR; for FFA (NEFA) / Glucose / Triglycerides / cholesterol / ketone: 26 day ZDF rat efficacy study; for circulating glucose levels upon intraperitoneal delivery of insulin (ITT): FIG. 4, ITT at day 11
From the text: The ZDF rat is a monogenic model of Type II Diabetes. […] This mutation results in a hyperphagic phenotype and the rodent develops obesity, hyperlipidemia, fasting hyperglycemia and Type II Diabetes. The model at 7 weeks of age develops hyperinsulinemia followed by a loss of glucose stimulated insulin secretion due to beta islet failure. Fifty ZDF fa/fa male rats were received at four weeks of age and allowed to acclimate for one week. At five week of age the animals were single housed in cages in a temperature-controlled room with 12-hour light/dark cycle. They were allowed ad libitum access to water and food and throughout the study were maintained on a Purina 5008 diet. Animals were sorted into five groups based first on glucose levels and then at body weight (average fed glucose levels and body weight at 7 weeks of age were 488 mg/dL and 282 grams, respectively). Animals were given Compound 1 orally once a day for 25 days in the morning at 3 mpk, 10 mpk and 30 mpk. A separate group was dosed daily with vehicle. The vehicle used for Compound 1 in this study consisted of 15% VE-TEPG, 30% PEG400 and 55% water. Food intake, body weight, glucose, insulin, triglyceride and free fatty acid levels were monitored throughout the study using blood collected from the tail vein. At day 11 of the study an insulin tolerance test (ITT) was done to evaluate peripheral insulin sensitivity. On day 19 an OGTT was done to assess glucose disposal rates. […] On the day of the necropsy the rats were bled through the orbital sinus under CO2:O2 anesthesia. Animals were sacrificed and several tissues were collected, frozen in liquid nitrogen and stored at −80° C. Serum plasma samples were prepared by centrifugation in EDTA containing tubes, transferred into 96 well plates and stored at −80° C.

SMILES: COc1cc(/C=C2\SC(=O)NC2=O)ccc1Oc1ccc(C#N)cc1C(F)(F)F [Compound 1, 4-[4-(2,4-Dioxo-thiazolidin-5-ylidenemethyl)-2-methoxy-phenoxy]-3-trifluoromethyl-benzonitrile]
- 3-hydroxy-butyrate ([1]; 3 mpk orally twice a day): 8.3 ± 0.9 ×10−5
- % body fat ([1]; 3 mpk orally twice a day): 12.7 ± 0.8%
- FFA (Free Fatty Acids): NEFA (Non Esterified Fatty Acids) ([1]; 3 mpk orally twice a day): 0.59 ± 0.07 mM
- Glucose ([1]; 3 mpk orally twice a day): 165.0 ± 5.0 mg/dL
- Lean Mass ([1]; 3 mpk orally twice a day): 20.2 ± 0.3 g
- Triglyceride ([1]; 3 mpk orally twice a day): 160.0 ± 18.9 mg/dL
- Insulin ([1]; 3 mpk orally twice a day): 9.6 ± 1.5 ng/mL
- 3-hydroxy-butyrate ([1]; 30 mpk orally twice a day): 12.6 ± 1.8 ×10−5
- % body fat ([1]; 30 mpk orally twice a day): 9.3 ± 0.6 %
- FFA (Free Fatty Acids): NEFA (Non Esterified Fatty Acids) ([1]; 30 mpk orally twice a day): 0.41 ± 0.05 mM
- Glucose ([1]; 30 mpk orally twice a day): 185.0 ± 10.01 mg/dL
- Lean Mass ([1]; 30 mpk orally twice a day): 20.0 ± 0.2 g
- Triglyceride ([1]; 30 mpk orally twice a day): 80.0 ± 9.8 mg/dL
- Insulin ([1]; 30 mpk orally twice a day): 2.8 ± 0.8 ng/mL
- Total body fat ([1]; AKR/J mice, 3 mpk orally twice a day): 3.87 ± 0.29 g
- Total body fat ([1]; AKR/J mice, 30 mpk orally twice a day): 2.7 ± 0.2 g
- body weight ([1]; FIG. 1, AKR/J mice, 3 and 30 mpk twice a day, day five): reduces body weight
- food intake ([1]; FIG. 1, AKR/J mice, 3 and 30 mpk twice a day, day four): reduces food intake
- Body weight change (0-25 day) ([2]; 3 mpk orally once a day): 62.7*
- Total food intake (0-25 days) ([2]; 3 mpk orally once a day): 727
- % Fat Day 18 ([2]; 3 mpk orally once a day): 58** %
- FFA (NEFA) ([2]; 3 mpk): 0.65 mM
- Glucose ([2]; 3 mpk): 584.88 mg/dL
- Triglycerides ([2]; 3 mpk): 596.33 mg/dL
- cholesterol ([2]; 3 mpk): 145.70 mg/dL
- ketone ([2]; 3 mpk): 183.97 µmol/L
- Body weight change (0-25 day) ([2]; 10 mpk orally once a day): 49.3
- Total food intake (0-25 days) ([2]; 10 mpk orally once a day): 720
- % Fat Day 18 ([2]; 10 mpk orally once a day): 59** %
- FFA (NEFA) ([2]; 10 mpk): 0.54 mM
- Glucose ([2]; 10 mpk): 549.63 mg/dL
- Triglycerides ([2]; 10 mpk): 402.39** mg/dL
- cholesterol ([2]; 10 mpk): 156.08* mg/dL
- ketone ([2]; 10 mpk): 144.61 µmol/L
- Body weight change (0-25 day) ([2]; 30 mpk orally once a day): 65.3*
- Total food intake (0-25 days) ([2]; 30 mpk orally once a day): 703**
- % Fat Day 18 ([2]; 30 mpk orally once a day): 60*** %
- FFA (NEFA) ([2]; 30 mpk): 0.48 mM
- Glucose ([2]; 30 mpk): 545.64 mg/dL
- Triglycerides ([2]; 30 mpk): 320.94*** mg/dL
- cholesterol ([2]; 30 mpk): 169.92** mg/dL
- ketone ([2]; 30 mpk): 134.84* umol/L
- fed free fatty acid levels ([2]; FIG. 3, versus vehicle control): reduces
- fed triglyceride levels ([2]; FIG. 3, versus vehicle control): reduces
- circulating glucose levels upon intraperitoneal delivery of insulin (ITT) [2]: reduction in circulating glucose levels
- circulating glucose levels upon intraperitoneal delivery of insulin (ITT) ([2]; listed as compound 1): normalizing glucose levels at the 30 minute time point
- AUC of glucose during the ITT ([2]; FIG. 4 right panel, 0-60 and 0-120 minute time points): reduction of AUC of glucose
- fasting glucose levels ([2]; FIG. 5, after a 16 hour fast): reduction in fasting glucose levels
- plasma glucose following an oral glucose tolerance test ([2]; FIG. 6, OGTT day 19): lowering fasting plasma glucose
- insulin release levels following an oral glucose tolerance test ([2]; FIG. 7): increase on insulin release levels
- Hb1Ac levels ([2]; FIG. 8, after 26 days treatment): reduction in Hb1Ac levels
- fed glucose levels ([2]; FIG. 8, first three weeks of the study): lowering of fed glucose levels
- fed plasma insulin levels ([2]; FIG. 9): increasing fed plasma insulin levels
- pancreatic insulin content ([2]; FIG. 9): increasing
